In PMC11953117 (Cancer Chemotherapy and Pharmacology, 2025):

Assay: Safety endpoints (treatment-emergent AEs, CTCAE v4) in three phase 1 studies
Assay type: in vivo, human
Text: AEs were collected throughout the trials, graded using Common Terminology Criteria for Adverse Events v4. Treatment-emergent AEs (TEAEs), defined as any AE that started after the first dose of study treatment or that started prior to dosing and worsened during on treatment period (by investigator report of a change in intensity) following exposure to treatment, were included in the analysis.
The rash AE endpoint pooled the following Medical Dictionary for Regulatory Activities (MedDRA) preferred terms: rash maculo-papular, rash macular, rash, rash generalized, rash papular and rash pruritic, while the diarrhea AE and hyperglycemia AE included the MedDRA preferred terms diarrhea and hyperglycemia, respectively.
The grade selection for diarrhea and rash was based on clinical relevance in terms of limiting quality of life; for hyperglycemia the grade was higher considering this is a pharmacodynamic effect of AKT inhibition and often seen as asymptomatic change of laboratory value only.

[1] = Continuous BID, 80 mg, N=8, pooled studies
[2] = Continuous BID, 160 mg, N=5, pooled studies
[3] = Continuous BID, 240 mg, N=13, pooled studies
[4] = Continuous BID, 320 mg, N=18, pooled studies
[5] = Continuous BID, 400 mg, N=16, pooled studies
[6] = Continuous BID, 480 mg, N=6, pooled studies
[7] = Continuous BID, 600 mg, N=2, pooled studies
[8] = Total, all doses and schedules, N=277
[9] = [2/5] BID, 640 mg, N=14, pooled studies
[10] = [2/5] BID, 800 mg, N=14, pooled studies
[11] = [4/3] BID, 360 mg, N=8, pooled studies
[12] = [4/3] BID, 480 mg, N=163, pooled studies
[13] = [4/3] BID, 640 mg, N=10, pooled studies
[14] = in total, across all doses and schedules

NC1(C(=O)N[C@@H](CCO)c2ccc(Cl)cc2)CCN(c2ncnc3[nH]ccc23)CC1 [capivasertib, 4-amino-N-[(1S)-1-(4-chlorophenyl)-3-hydroxypropyl]-1-(7H-pyrrolo[2,3-d]pyrimidin– 4-yl)piperidine-4-carboxamide]
AE grade ≥ 1 [1]: 8 (100) n (%) | AE grade ≥ 3 [1]: 2 (25.0) n (%) | AEDD (AE leading to dose discontinuation) [1]: 0 n (%) | AEDM (AE leading to dose modification) [1]: 2 (25.0) n (%) | Diarrhea AE grade ≥ 2 [1]: 0 n (%) | Hyperglycemia AE grade ≥ 3 [1]: 0 n (%) | Increased BG > 13.9 mmol/L [1]: 0 n (%) | Rash AE grade ≥ 2 [1]: 1 (12.5) n (%) | SAE [1]: 2 (25.0) n (%) | AE grade ≥ 1 [2]: 5 (100) n (%) | AE grade ≥ 3 [2]: 0 n (%) | AEDD (AE leading to dose discontinuation) [2]: 0 n (%) | AEDM (AE leading to dose modification) [2]: 1 (20.0) n (%) | Diarrhea AE grade ≥ 2 [2]: 0 n (%) | Hyperglycemia AE grade ≥ 3 [2]: 0 n (%) | Increased BG > 13.9 mmol/L [2]: 0 n (%) | Rash AE grade ≥ 2 [2]: 1 (20.0) n (%) | SAE [2]: 1 (20.0) n (%) | AE grade ≥ 1 [3]: 12 (92.3) n (%) | AE grade ≥ 3 [3]: 4 (30.8) n (%) | AEDD (AE leading to dose discontinuation) [3]: 1 (7.7) n (%) | AEDM (AE leading to dose modification) [3]: 2 (15.4) n (%) | Diarrhea AE grade ≥ 2 [3]: 4 (30.8) n (%) | Hyperglycemia AE grade ≥ 3 [3]: 2 (15.4) n (%) | Increased BG > 13.9 mmol/L [3]: 4 (30.8) n (%) | Rash AE grade ≥ 2 [3]: 3 (23.1) n (%) | SAE [3]: 0 n (%) | AE grade ≥ 1 [4]: 18 (100) n (%) | AE grade ≥ 3 [4]: 10 (55.6) n (%) | AEDD (AE leading to dose discontinuation) [4]: 3 (16.7) n (%) | AEDM (AE leading to dose modification) [4]: 8 (44.4) n (%) | Diarrhea AE grade ≥ 2 [4]: 5 (27.8) n (%) | Hyperglycemia AE grade ≥ 3 [4]: 2 (11.1) n (%) | Increased BG > 13.9 mmol/L [4]: 3 (16.7) n (%) | Rash AE grade ≥ 2 [4]: 5 (27.8) n (%) | SAE [4]: 4 (22.2) n (%) | AE grade ≥ 1 [5]: 16 (100) n (%) | AE grade ≥ 3 [5]: 15 (93.8) n (%) | AEDD (AE leading to dose discontinuation) [5]: 7 (43.8) n (%) | AEDM (AE leading to dose modification) [5]: 15 (93.8) n (%) | Diarrhea AE grade ≥ 2 [5]: 10 (62.5) n (%) | Hyperglycemia AE grade ≥ 3 [5]: 4 (25.0) n (%) | Increased BG > 13.9 mmol/L [5]: 7 (43.8) n (%) | Rash AE grade ≥ 2 [5]: 8 (50.0) n (%) | SAE [5]: 6 (37.5) n (%) | AE grade ≥ 1 [6]: 6 (100) n (%) | AE grade ≥ 3 [6]: 6 (100) n (%) | AEDD (AE leading to dose discontinuation) [6]: 4 (66.7) n (%) | AEDM (AE leading to dose modification) [6]: 5 (83.3) n (%) | Diarrhea AE grade ≥ 2 [6]: 5 (83.3) n (%) | Hyperglycemia AE grade ≥ 3 [6]: 2 (33.3) n (%) | Increased BG > 13.9 mmol/L [6]: 2 (33.3) n (%) | Rash AE grade ≥ 2 [6]: 3 (50.0) n (%) | SAE [6]: 6 (100) n (%) | AE grade ≥ 1 [7]: 2 (100) n (%) | AE grade ≥ 3 [7]: 2 (100) n (%) | AEDD (AE leading to dose discontinuation) [7]: 2 (100) n (%) | AEDM (AE leading to dose modification) [7]: 1 (50.0) n (%) | Diarrhea AE grade ≥ 2 [7]: 1 (50.0) n (%) | Hyperglycemia AE grade ≥ 3 [7]: 0 n (%) | Increased BG > 13.9 mmol/L [7]: 1 (50.0) n (%) | Rash AE grade ≥ 2 [7]: 2 (100) n (%) | SAE [7]: 2 (100) n (%) | AE grade ≥ 1 [8]: 274 (98.9) n (%) | AE grade ≥ 3 [8]: 182 (65.7) n (%) | AEDD (AE leading to dose discontinuation) [8]: 51 (18.4) n (%) | AEDM (AE leading to dose modification) [8]: 139 (50.2) n (%) | Diarrhea AE grade ≥ 2 [8]: 102 (36.8) n (%) | Hyperglycemia AE grade ≥ 3 [8]: 72 (26.0) n (%) | Increased BG > 13.9 mmol/L [8]: 126 (45.5) n (%) | Rash AE grade ≥ 2 [8]: 73 (26.4) n (%) | SAE [8]: 107 (38.6) n (%) | AE grade ≥ 1 [9]: 14 (100) n (%) | AE grade ≥ 3 [9]: 11 (78.6) n (%) | AEDD (AE leading to dose discontinuation) [9]: 2 (14.3) n (%) | AEDM (AE leading to dose modification) [9]: 2 (14.3) n (%) | Diarrhea AE grade ≥ 2 [9]: 3 (21.4) n (%) | Hyperglycemia AE grade ≥ 3 [9]: 7 (50.0) n (%) | Increased BG > 13.9 mmol/L [9]: 8 (57.1) n (%) | Rash AE grade ≥ 2 [9]: 2 (14.3) n (%) | SAE [9]: 7 (50.0) n (%) | AE grade ≥ 1 [10]: 14 (100) n (%) | AE grade ≥ 3 [10]: 8 (57.1) n (%) | AEDD (AE leading to dose discontinuation) [10]: 1 (7.1) n (%) | AEDM (AE leading to dose modification) [10]: 8 (57.1) n (%) | Diarrhea AE grade ≥ 2 [10]: 3 (21.4) n (%) | Hyperglycemia AE grade ≥ 3 [10]: 5 (35.7) n (%) | Increased BG > 13.9 mmol/L [10]: 9 (64.3) n (%) | Rash AE grade ≥ 2 [10]: 2 (14.3) n (%) | SAE [10]: 5 (35.7) n (%) | AE grade ≥ 1 [11]: 6 (75.0) n (%) | AE grade ≥ 3 [11]: 3 (37.5) n (%) | AEDD (AE leading to dose discontinuation) [11]: 0 n (%) | AEDM (AE leading to dose modification) [11]: 3 (37.5) n (%) | Diarrhea AE grade ≥ 2 [11]: 4 (50.0) n (%) | Hyperglycemia AE grade ≥ 3 [11]: 1 (12.5) n (%) | Increased BG > 13.9 mmol/L [11]: 3 (37.5) n (%) | Rash AE grade ≥ 2 [11]: 1 (12.5) n (%) | SAE [11]: 0 n (%) | AE grade ≥ 1 [12]: 163 (100) n (%) | AE grade ≥ 3 [12]: 114 (69.9) n (%) | AEDD (AE leading to dose discontinuation) [12]: 27 (16.6) n (%) | AEDM (AE leading to dose modification) [12]: 90 (55.2) n (%) | Diarrhea AE grade ≥ 2 [12]: 64 (39.3) n (%) | Hyperglycemia AE grade ≥ 3 [12]: 45 (27.6) n (%) | Increased BG > 13.9 mmol/L [12]: 82 (50.3) n (%) | Rash AE grade ≥ 2 [12]: 45 (27.6) n (%) | SAE [12]: 68 (41.7) n (%) | AE grade ≥ 1 [13]: 10 (100) n (%) | AE grade ≥ 3 [13]: 7 (70.0) n (%) | AEDD (AE leading to dose discontinuation) [13]: 4 (40) n (%) | AEDM (AE leading to dose modification) [13]: 2 (20.0) n (%) | Diarrhea AE grade ≥ 2 [13]: 3 (30.0) n (%) | Hyperglycemia AE grade ≥ 3 [13]: 4 (40.0) n (%) | Increased BG > 13.9 mmol/L [13]: 7 (70.0) n (%) | Rash AE grade ≥ 2 [13]: 0 n (%) | SAE [13]: 6 (60.0) n (%) | patients with AE grade ≥ 1 [14]: 98.9% | patients with AEs grade ≥ 3 [14]: 65.7% | patients with AEs leading to dose discontinuation [14]: 18.4% | patients with AEs leading to dose modification [14]: 50.2% | patients with SAEs [14]: 38.6% | patients with diarrhea AE grade ≥ 2 [14]: 36.8% | patients with hyperglycemia grade ≥ 3 [14]: 26.0% | patients with increased blood glucose > 13.9 mmol/L [14]: 45.5% | patients with rash AE grade ≥ 2 [14]: 26.4%
